The results in this text go back to PubChem BioAssay AID449764 (Southern Research Specialized Biocontainment Screening …, 2010).

The assay relates to Mycobacterium tuberculosis H37Rv growth inhibition, no glycerol. Description: Mycobacterium tuberculosis H37Rv growth inhibition, no glycerol, confirmatory dose response (AID 449764).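 For all read-outs here: growth read after 7 days of incubation.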 The note with it: for IC90: measured here: IC90 growth inhibition.

Regarding `COC(=O)[C@@H](NC(=O)c1cc(COc2cncc(Cl)c2)on1)c1ccccc1`, the IC50 was 2.93 µM and the 90% effect concentration (IC90) turned out to be 3.31 µM. On the same counts, the results for `COc1ccc(-c2nc(CN3CCN(c4cc(C)nc(C)c4)CC3)c(C)o2)c2ccccc12` are 23.4 µM and 25.6 µM. As for `Cc1cc(O)c2c(c1)C(=O)c1cc(O)cc(O)c1C2=O`, the 50% inhibitory concentration (IC50) is 89 µM and the IC90 was greater than 100 µM. For `Clc1ccc2c(c1)CCc1cccnc1C2=C1CCNCC1`, the concentration for half-maximal inhibition (IC50) is 32.9 µM and the concentration for an effect of 90% (IC90) turned out to be 38.8 µM.

Take `CCCOc1ccc(N2CC(C(=O)Nc3ccccn3)CC2=O)cc1` (stereo not drawn): the IC50 is 36.4 µM and the IC90 was greater than 100 µM. On the same counts, the results for `COc1ccccc1C1CCN(Cc2ccc3ccccc3c2)CC1` are 21.8 µM and 24.6 µM. On the same counts, the results for `Cn1cnnc1SCc1ccc(C(=O)N=Nc2c(O)n(Cc3ccc(Cl)cc3)c3ccccc23)cc1` are 3.04 µM and 3.38 µM. On the same counts, the results for `O=c1c(-c2cnn(-c3ccccc3)c2)coc2cc(O)ccc12` are 48.1 µM and greater than 100 µM. In the case of `CCOc1ccc(NC(=S)Nc2ccc(C)c([N+](=O)[O-])c2)cc1`, the 50% inhibitory concentration (IC50) was 27.7 µM and the IC90 is greater than 100 µM.

Turning to `NN(Cc1ccccc1)C(=S)Nc1ccc(Cl)c(Cl)c1`, the IC50 was 25.2 µM and the IC90 was 39.4 µM. The corresponding values for `c1ccc(-n2cnc3cc(NCc4cccs4)ccc32)cc1` are 89 µM and greater than 100 µM. In the case of `COC1=CC(=O)c2ccccc2C1=O`, the half-maximal inhibitory concentration (IC50) is 22.8 µM and the concentration for an effect of 90% (IC90) is 24.6 µM.

As for `CC(C)Oc1ccc(-c2nc(NCC3CCCO3)c3ccccc3n2)cc1` (stereo not drawn), the half-inhibitory concentration (IC50) was 62.3 µM and the concentration for an effect of 90% (IC90) came out at 98.3 µM. The corresponding values for `O=C([O-])c1ccccc1-[n+]1c(-c2ccccc2)cc(-c2ccccc2)cc1-c1ccccc1` are 22 µM and 24.5 µM. Consider `CCCn1c(Nc2nc3ccccc3n2C)nc2ccccc21`, for which the half-maximal inhibitory concentration (IC50) is 65.3 µM and the concentration for an effect of 90% (IC90) is 75.8 µM. The corresponding values for `Cc1ccc(NC(=O)CSc2nc3ccccc3c(=O)n2CCCN2CCCCC2)cc1Cl` are 36.6 µM and 79.2 µM. The corresponding values for `O=C(CCC(=O)OCc1ccc(C(=O)Oc2ccc(Cl)cc2)cc1)Nc1ccccc1` are 80.2 µM and greater than 100 µM. The corresponding values for `c1ccc(-c2nc(N3CCCC3)nc3ccccc23)cc1` are 47 µM and 53.5 µM.

In the case of `CCOC(=O)CCCNC(=O)COC(=O)c1cc(Br)c(Br)s1`, the half-inhibitory concentration (IC50) is 18.5 µM and the IC90 was greater than 100 µM. The corresponding values for `CCOc1ccc(NC(=O)CCc2nnc3ccc(N4CCC(C)CC4)nn23)cc1` are 12.5 µM and 14.7 µM.

Take `COc1cc(NC(C)CCCN)c2ncccc2c1` (stereo not drawn): the IC50 is 9.02 µM and the IC90 was found to be 14.3 µM. As to `COc1ccc(N2CCN(C(=O)c3ccc(CNc4c(N5CCOCC5)c(=O)c4=O)cc3)CC2)cc1`, the IC50 is 2.96 µM and the IC90 is 3.24 µM. The corresponding values for `CCc1cc(C(=O)NNC(=O)CCl)sc1C` are 5.03 µM and 7.55 µM. On the same counts, the results for `CC(C)C[C@H](NC(=O)c1nc[nH]c1C(=O)NC1CCN(C(=O)OC(C)(C)C)CC1)C(=O)OCc1ccccc1` are 21.8 µM and 29.6 µM. In the case of `O=C1CC(=C(c2ccccc2)c2ccccc2)C(=O)N1CCCCN1CCN(c2ccccc2)CC1`, the half-maximal inhibitory concentration (IC50) was 25.3 µM and the concentration for an effect of 90% (IC90) stood at 28.8 µM. Regarding `O=C(OCC(=O)N1CCN(C(=O)c2ccco2)CC1)c1cc(-c2cccc(Br)c2)nc2ccccc12`, the IC90 was greater than 100 µM. On to `COc1cc2c(C(=O)N3CCN(c4cccc(Cl)c4)CC3)cn(CC(C)C)c(=O)c2cc1OC`, for which the IC50 was 47.4 µM and the IC90 worked out at 73.4 µM. The corresponding values for `CC(C)C(=O)N1CCC2(CC1)Oc1ccc(Cl)cc1C(=O)C21CC(c2ccccc2)=NO1` (stereo not drawn) are 59.4 µM and greater than 100 µM. On the same counts, the results for `CCN1CCN(c2oc(COc3ccc(-c4ccccc4)cc3)nc2C#N)CC1` are 36.4 µM and 47.6 µM. The corresponding values for `CCC(=O)N1c2ccc(S(=O)(=O)CCC(=O)N3CCn4c3nc3ccccc34)cc2CC1C` (stereo not drawn) are 23.4 µM and 27.5 µM. Turning to `CCCNC1=C(N(C(C)=O)c2cccc(F)c2)C(=O)c2ccccc2C1=O`, the IC50 was 12.2 µM and the IC90 was 15.6 µM. On the same counts, the results for `O=C(NNc1nc(-c2ccccc2)cs1)c1ccccc1` are 40.2 µM and greater than 100 µM. The corresponding values for `O=c1[nH]c(=O)n(Cc2ccccc2)c2nc(-c3ccc(Oc4ccc(F)cc4)c([N+](=O)[O-])c3)n(CCO)c12` are 50.5 µM and greater than 100 µM.

With `COCCCn1c(SCc2cccc(OC)c2)nc2cc(OC)c(OC)cc2c1=N`, the IC50 is 33.9 µM and the concentration for an effect of 90% (IC90) was determined as 44.6 µM. On the same counts, the results for `CCCNc1nc(-c2cc(C(=O)Nc3ccccc3)on2)cc(C(C)C)n1` are 42.5 µM and 68.9 µM. As to `Cc1ccc(Cn2ccsc2=NC(=O)CCl)cc1`, the IC50 was 2.86 µM and the IC90 was determined as 6.73 µM. On the same counts, the results for `N#C/C=C\Oc1ccc(Cl)cc1N` are 21.5 µM and 23.9 µM. `COc1ccc(/C=C/CN2CCC(CO)(Cc3ccccc3Cl)CC2)cc1`: the IC50 is 24.3 µM and the IC90 came out at 27.5 µM. On the same counts, the results for `CSCCC1NC(=O)N(CC(=O)N2N=C(c3ccc(Cl)cc3)CC2c2ccco2)C1=O` (stereo not drawn) are 10.9 µM and 13.6 µM. The corresponding values for `CCC(=O)Oc1ccc(C(=O)Nc2ccc3c(c2)C(=O)N(C2CCCCC2)C3=O)cc1` are 24.1 µM and 28.3 µM. On the same counts, the results for `CCCn1c(=N)c(C(=O)NCc2ccc3c(c2)OCO3)cc2c(=O)n3cccc(C)c3nc21` are 20.6 µM and 29.1 µM. With `CCOC(=O)c1nnc(-c2ccccc2)nc1Sc1ccccc1Cl`, the IC50 is 90.6 µM and the 90% effect concentration (IC90) is greater than 100 µM.

Take `CCOC(=O)c1sc2nc3n(c(=O)c2c1C)CCC(C)CC3` (stereo not drawn): the 50% inhibitory concentration (IC50) was 23 µM and the IC90 turned out to be 26.4 µM. `O=C(NC(C(=O)N/N=C/c1cccc2ccccc12)c1n[nH]c(=O)c2ccccc12)c1ccccc1` (stereo not drawn): the half-maximal inhibitory concentration (IC50) was 58.8 µM and the 90% effect concentration (IC90) is greater than 100 µM.

For `Cc1ccc(-c2csc(N3CCN(CCCn4c(-c5ccncc5)nc5ccccc54)CC3)n2)cc1`, the IC50 was 29.7 µM and the IC90 came out at 48.3 µM.

Consider `Cc1ccc(C(=O)N/C(=C/c2ccc(-c3cc(C(F)(F)F)ccc3Cl)o2)C(=O)NCc2cccnc2)cc1`, for which the IC50 is 73.6 µM and the IC90 is greater than 100 µM. `S=C(Nc1ccc(Nc2ccccc2)cc1)Nc1ccccn1`: the half-inhibitory concentration (IC50) is 48.6 µM and the concentration for an effect of 90% (IC90) was greater than 50 µM. For `CCCNC(=S)Nc1ccc(Nc2ccccc2)cc1`, the IC50 was 25 µM and the 90% effect concentration (IC90) is 44.5 µM. The corresponding values for `O=C1NCN(c2ccccc2)C12CCN(CCCC(c1ccc(F)cc1)c1ccc(F)cc1)CC2` are 43.2 µM and 49.2 µM.

Consider `c1ccc(-c2cn3c(n2)CCc2ccc4cccnc4c2-3)cc1`, for which the IC50 was 22.4 µM and the 90% effect concentration (IC90) was 25.4 µM. In the case of `COC(=O)C1CC(=O)N(c2ccc(OCc3ccccc3Cl)cc2)C1` (stereo not drawn), the 50% inhibitory concentration (IC50) was 1.26 µM and the IC90 is 4.8 µM. `CC(C(c1ccc2c(c1)OCO2)c1c(N)n(C)c(=O)n(C)c1=O)[N+](=O)[O-]` (stereo not drawn): the IC50 was 8.17 µM and the concentration for an effect of 90% (IC90) was 11.8 µM.

For the compound `CCOC(=O)c1[nH]c2ccc(F)cc2c1NC(=O)CN1CCN(C/C=C/c2ccccc2)CC1`, the 50% inhibitory concentration (IC50) was 28.4 µM and the 90% effect concentration (IC90) worked out at 42.8 µM. On the same counts, the results for `COc1cc(C)ccc1S(=O)(=O)N1CCN(C23CC4CC(CC(C4)C2)C3)CC1` are 46.5 µM and 51.1 µM.

Consider `Cc1ccc(-n2c(C)cc(/C=N/NC(N)=S)c2C)cc1`, for which the half-inhibitory concentration (IC50) was 12.2 µM and the 90% effect concentration (IC90) came out at 20 µM. The corresponding values for `CCCCOc1ccc(C(=O)Oc2ccc(C)nc2)cc1` are 54.8 µM and 78.8 µM.

Consider `COc1cccc(NC(=S)/C(=C(\[O-])c2cc(C)n(-c3ccccc3F)c2C)[n+]2ccc(N(C)C)cc2)c1`, for which the half-maximal inhibitory concentration (IC50) is 70.2 µM and the 90% effect concentration (IC90) is 90.3 µM.

For `Clc1ccc(CCC(Cn2ccnc2)Sc2c(Cl)cccc2Cl)cc1` (stereo not drawn), the IC50 was 11.8 µM and the IC90 stood at 13.3 µM.

As for `Cc1c(CCC(=O)NCCCn2ccnc2)c(=O)oc2c(C)c3occ(C(C)(C)C)c3cc12`, the IC50 is 28 µM and the concentration for an effect of 90% (IC90) came out at 37.6 µM. `CC(C)NC(=S)N/N=C/c1c[nH]c2ccccc12` had a concentration for an effect of 90% (IC90) greater than 100 µM. For `CCCCOC(=O)CSc1nnc(-c2ccc(Cl)cc2Cl)o1`, the half-maximal inhibitory concentration (IC50) was less than 0.2 µM and the IC90 amounted to 7.21 µM. On the same counts, the results for `Cc1ccc(OCCCCNC2CCCC(C)C2C)c(C)c1` (stereo not drawn) are 23.1 µM and 25.4 µM. On the same counts, the results for `CN(C)c1ccc(CNC2C3CC4CC(C3)CC2C4)cc1` (stereo not drawn) are 12.2 µM and 17 µM. On the same counts, the results for `C[C@]12C=CC(=O)C=C1CC[C@@H]1C2=CC[C@]2(C)[C@@H](C(=O)CN3CCN(c4cc(N5CCCC5)nc(N5CCCC5)n4)CC3)CC[C@@H]12` are 38.5 µM and 55.9 µM. Take `CN(C)[C@@H]1C(=O)C(C(N)=O)=C(O)[C@@]2(O)C(=O)C3=C(O)c4c(O)cccc4[C@@](C)(O)C3C[C@@H]12` (stereo partly drawn): the 50% inhibitory concentration (IC50) was 9.73 µM and the IC90 was found to be 27.4 µM. The corresponding values for `CC(/C=N/n1c(C2CCCCC2)n[nH]c1=S)=C\c1ccccc1` are 80.8 µM and 90.3 µM. For the compound `O=C1/C(=N\S(=O)(=O)c2cccs2)C([n+]2ccc(CCCc3ccccc3)cc2)=C([O-])c2ccccc21`, the half-inhibitory concentration (IC50) was 22.8 µM and the IC90 turned out to be 25.7 µM. Consider `Cc1cc(C)c2ccc(NN)nc2c1O`, for which the 50% inhibitory concentration (IC50) is 4.04 µM and the concentration for an effect of 90% (IC90) turned out to be 4.87 µM. Regarding `O=C(Nc1nc2ccc(SC(F)F)cc2s1)c1ccc(NS(=O)(=O)c2ccc(F)c(F)c2)cc1`, the IC50 was 11.9 µM and the concentration for an effect of 90% (IC90) worked out at 18.9 µM. On the same counts, the results for `O=C(CSCc1ccc([N+](=O)[O-])cc1)N/N=C/c1ccncc1` are 11.3 µM and 26 µM.

Broadly, the IC50 is the midpoint of a concentration-inhibition curve. For orientation: IC90 means the concentration at which the effect reaches the 90% level.
